Entries after “also recorded” stand apart in the source; their conditions may differ. Each block holds one molecule with its values, some of them ahead of it. Square brackets hold non-standard residues; d marks the D form. Peptide text beside a SMILES is read from it. * marks the point of attachment. Sta = CC(C)C[C@H](N)[C@@H](O)CC(=O)O; Isovaleryl = CC(C)CC(=O)*
Columns and labels:
C. albicans whole cells = test: Degradation assay of Hst-5 with C. albicans whole cells; parameters: species or system Candida albicans
Experimental: (§1) The C. albicans SC5314 strain, the C. albicans SAP null mutants sap1–3 triple mutant (lacking SAP1–3), sap4–6 triple mutant (lacking SAP4–6), sap9 single mutant (lacking SAP9), sap10 single mutant (lacking SAP10) and sap9,10 double mutant (lacking both SAP9 and SAP10), as well as the parent strain CAI4 (URA-) were used in these experiments, [43], [44]. Strains were grown in YPD broth (Difco Laboratories, Detroit, MI) overnight at 30°C with shaking and cells were equilibrated in fresh media to an optical density of 1.0 at OD600. High purity Hst-5, proteinase K, PMSF and pepstatin A were purchased from Sigma (Sigma-Aldrich Chemical, St. Louis, MO). Histatin-5 was reconstituted in 1 mM phosphate-buffered saline (PBS) and used at a final concentration of 150 µg/ml (within the range of physiological salivary concentration) in all experiments unless otherwise stated. All experiments were performed on at least three separate occasions.
The intensity of the bands on the Coomassie-stained gels was assessed by densitometric analysis using a MultiImager scanner (Bio-Rad Laboratories, Hercules California) and images analyzed with the PDQuest version 7.0 (BioRAd).

[1] = tested on: cell-free supernatants of C. albicans cell suspensions; test: Degradation assay of Hst-5 with cell-free supernatants; parameters: species or system Candida albicans; details: C. albicans supernatant compared to whole C. albicans cells; SDS-PAGE (Figure 3C)
Experimental: Degradation assays were performed by incubating Hst-5 with 100 µl of standardized cell concentrations of the C. albicans strains in PBS for 2 h at 37°C. Unless otherwise stated, C. albicans strains were used in experiments at a cell concentration of 2×10^8 cells/ml (generating two visible bands). Protease K was used as a positive control and negative controls with peptide and no C. albicans were included. Following incubation, samples were collected, heated at 100°C to remove proteolytic activity and analyzed by sodium dodecyl sulfate polyacrylamide gel electrophoresis (SDS-PAGE). Experiments were also performed using increasing C. albicans cell densities and at different time points where samples were collected following 20, 60 and 120 minutes incubation. In addition, assays were performed using cell-free supernatants from C. albicans cell suspensions to determine whether the proteolytic substance is secreted.

Sap9 [2] = target: T1, Sap9 (Candida albicans, UniProt Q59SU1); details: MALDI-TOF/TOF MS peptide mapping
T1 sequence (Q59SU1 18-520): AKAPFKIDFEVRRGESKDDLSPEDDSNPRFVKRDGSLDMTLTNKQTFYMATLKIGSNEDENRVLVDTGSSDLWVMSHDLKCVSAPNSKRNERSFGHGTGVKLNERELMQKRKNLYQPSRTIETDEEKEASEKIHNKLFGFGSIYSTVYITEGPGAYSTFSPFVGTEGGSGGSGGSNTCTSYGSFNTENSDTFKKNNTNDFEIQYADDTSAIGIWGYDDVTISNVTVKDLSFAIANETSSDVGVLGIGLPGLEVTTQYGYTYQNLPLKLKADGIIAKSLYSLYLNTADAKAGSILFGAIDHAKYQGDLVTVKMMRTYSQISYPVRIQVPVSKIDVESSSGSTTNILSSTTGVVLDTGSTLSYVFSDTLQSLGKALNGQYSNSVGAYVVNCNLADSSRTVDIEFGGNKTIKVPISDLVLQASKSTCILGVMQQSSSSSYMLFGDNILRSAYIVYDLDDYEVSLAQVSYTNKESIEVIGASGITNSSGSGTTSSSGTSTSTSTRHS
Source text: The recombinant proteases Sap9 and Sap10 were produced in Pichia pastoris as described previously, [45]. Briefly, P. pastoris strain GS115 was transformed with the expression plasmid pKJ113 carrying truncated SAP9 and SAP10 versions lacking signal peptide- and GPI anchor consensus- encoding sequences. Proteases were recovered from culture supernatants and purified via anion exchange chromatography. Activity of proteases was verified by using a standard fluorescence casein based assay (Molecular Probes). Purified proteases (0.05, 0.1, 0.25 and 0.5 µg) were incubated with Hst-5 for 2 h. Following, samples were processed as described above.
Supernatants from the various degradation reactions were subjected to peptide mapping in order to determine the sequences of cleaved fragments, identify cleavage sites on the Hst-5 as well as other cleavage products that may not be visible by electrophoresis. […] Peptide samples were mixed with saturated α-cyano-4-hydroxycinnamic acid in acetonitrile∶trifluoroacetic acid 0.1% (1∶2 v/v) then measured on an Ultraflex MALDI-ToF/ToF device using flexControl 3.0 for data collection and flexAnalysis 3.0 for spectra analysis and peaklist generation (Bruker Daltonics GmbH, Germany). […]

[3] = tested on: C. albicans SAP null mutants; parameters: species or system Candida albicans; details: sap10 single mutant compared to parent strain CAI4 and SC5314 (Figure 4)
Experimental: as §1

Saccharomyces cerevisiae = test: Degradation of Hst-5 by Saccharomyces cerevisiae; details: compared to C. albicans (Figure S2)
Sap5 [4] = target: Sap5 (Candida albicans, UniProt P43094); details: data not shown
Sap5 (Candida albicans, UniProt P43094), sequence (P43094 77-418): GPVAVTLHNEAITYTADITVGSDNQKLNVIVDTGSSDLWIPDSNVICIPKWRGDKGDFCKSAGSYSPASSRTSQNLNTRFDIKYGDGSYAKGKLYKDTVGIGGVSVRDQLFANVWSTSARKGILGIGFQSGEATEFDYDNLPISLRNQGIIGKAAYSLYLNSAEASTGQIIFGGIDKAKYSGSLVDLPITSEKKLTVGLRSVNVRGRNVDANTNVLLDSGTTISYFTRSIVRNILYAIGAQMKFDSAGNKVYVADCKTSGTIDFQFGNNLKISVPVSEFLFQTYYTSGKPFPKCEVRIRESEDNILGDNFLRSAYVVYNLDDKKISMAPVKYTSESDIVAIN

C. albicans cells = test: Inhibition of C. albicans degradation of Hst-5 by protease inhibitors; type: cell-based, Candida albicans; details: 1 mM inhibitor in the degradation assay; SDS-PAGE (Figure 3B)
proteinase K = proteinase K (Parengyodontium album, UniProt P06873); test: Inhibition of proteinase K degradation of Hst-5 by protease inhibitors; type: biochemical; parameters: purchased Sigma (Sigma-Aldrich Chemical, St. Louis, MO); details: 1 mM inhibitor; SDS-PAGE (Figure 3A)
proteinase K, sequence (P06873 106-384): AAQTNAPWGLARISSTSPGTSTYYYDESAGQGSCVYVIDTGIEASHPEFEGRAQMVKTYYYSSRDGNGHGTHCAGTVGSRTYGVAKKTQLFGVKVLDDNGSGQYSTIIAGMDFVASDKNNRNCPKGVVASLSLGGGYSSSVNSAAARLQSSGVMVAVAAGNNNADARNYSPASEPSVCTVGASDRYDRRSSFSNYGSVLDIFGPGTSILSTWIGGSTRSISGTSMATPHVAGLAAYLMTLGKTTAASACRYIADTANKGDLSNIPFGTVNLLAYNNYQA

Sap9 [5] = target: T1, Sap9; test: Inhibition of Sap9 degradation of Hst-5; type: biochemical; parameters: made in house; host or cells: Pichia pastoris GS115 (plasmid pKJ113); details: purified Sap9 protease; SDS-PAGE (Figure 3D)
Source text: (§2) Following, samples were processed as described above.

Sap10 = Sap10 (Candida albicans, UniProt Q5A651); test: Inhibition of Sap10 degradation of Hst-5; type: biochemical; parameters: made in house; host or cells: Pichia pastoris GS115 (plasmid pKJ113); details: purified Sap10 protease; SDS-PAGE (Figure 3D)
Sap10, sequence (Q5A651 21-429): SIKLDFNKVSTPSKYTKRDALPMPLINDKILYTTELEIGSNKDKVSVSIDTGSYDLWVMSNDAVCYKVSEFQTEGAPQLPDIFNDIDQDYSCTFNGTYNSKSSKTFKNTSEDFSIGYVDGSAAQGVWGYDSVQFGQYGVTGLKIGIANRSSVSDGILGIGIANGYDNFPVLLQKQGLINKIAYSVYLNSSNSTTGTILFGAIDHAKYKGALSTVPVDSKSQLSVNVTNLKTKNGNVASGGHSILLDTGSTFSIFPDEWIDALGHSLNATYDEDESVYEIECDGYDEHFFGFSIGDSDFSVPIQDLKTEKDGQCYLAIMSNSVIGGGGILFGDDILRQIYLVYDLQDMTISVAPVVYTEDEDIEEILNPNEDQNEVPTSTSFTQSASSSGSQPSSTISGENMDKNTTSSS
Source text: as §2

Sap5 [6] = test: Sap5 protease; details: C. albicans, up to 2 h
Sap9 [7] = test: purified recombinant Sap9 protease; details: C. albicans, up to 2 h
[8] = C. albicans cells in PBS with pepstatin A; details: 37°C, up to 2 h
[9] = C. albicans whole cells (2×10^8 cells/ml) in PBS; details: Candida albicans, 37°C, up to 2 h
[10] = C. albicans whole cells (SC5314) in PBS, 2×10^8 cells/ml; details: 37°C, up to 2 h

Molecule: C[C@H](NC(=O)[C@H](Cc1cnc[nH]1)NC(=O)[C@H](CO)NC(=O)[C@@H](N)CC(=O)O)C(=O)N[C@@H](CCCCN)C(=O)N[C@@H](CCCNC(=N)N)C(=O)N[C@@H](Cc1cnc[nH]1)C(=O)N[C@@H](Cc1cnc[nH]1)C(=O)NCC(=O)N[C@@H](Cc1ccc(O)cc1)C(=O)N[C@@H](CCCCN)C(=O)N[C@@H](CCCNC(=N)N)C(=O)N[C@@H](CCCCN)C(=O)N[C@@H](Cc1ccccc1)C(=O)N[C@@H](Cc1cnc[nH]1)C(=O)N[C@@H](CCC(=O)O)C(=O)N[C@@H](CCCCN)C(=O)N[C@@H](Cc1cnc[nH]1)C(=O)N[C@@H](Cc1cnc[nH]1)C(=O)N[C@@H](CO)C(=O)N[C@@H](Cc1cnc[nH]1)C(=O)N[C@@H](CCCNC(=N)N)C(=O)NCC(=O)N[C@@H](Cc1ccc(O)cc1)C(=O)O [Hst-5, Histatin-5]
degradation of Hst-5 by C. albicans (C. albicans whole cells; 1×10^2 cells/ml and below, physiological concentrations of Hst-5): unable to degrade
degradation of Hst-5 by C. albicans (C. albicans whole cells; 1×10^6 cells/ml, 2 h 37°C, SDS-PAGE): no degradation
degradation of Hst-5 by C. albicans (C. albicans whole cells; 2×10^9 cells/ml, 2 h 37°C, SDS-PAGE): significant degradation
degradation of Hst-5 by C. albicans over time (C. albicans whole cells; 20 mins incubation at 37°C, SDS-PAGE, lower weight product): Minor degradation
degradation of Hst-5 by C. albicans over time (C. albicans whole cells; 1 h and 2 h incubation at 37°C, SDS-PAGE): significantly increasing level of degradation
time in which C. albicans degrades Hst-5 (C. albicans whole cells; C. albicans cells, 37°C, PBS, SDS-PAGE (Figure 2A)): ≤ 20 min
degradation of Hst-5 by C. albicans cells (C. albicans whole cells; Hst-5 150 µg/ml in PBS with 100 µl C. albicans cells (2×10^8 cells/ml unless stated), 2 h 37°C, SDS-PAGE, densitometry, at least three occasions): efficiently and rapidly degrade
level of degradation versus Hst-5 concentration (C. albicans whole cells; Hst-5 50–200 µg/ml, data not shown): inversely proportional to Hst-5 concentration
degradation of Hst-5 by cell-free supernatants [1]: significantly less degradation; also recorded: Minimal degradation
cleavage site of Sap9 on Hst-5 (Sap9 [2]): Lys13
degradation of Hst-5 by sap10 mutant [3]: some degree of inhibition
degradation of Hst-5 by C. glabrata (Candida glabrata): significant enhanced degradation
degradation of Hst-5 by S. cerevisiae (Saccharomyces cerevisiae): significant enhanced degradation
degradation of Hst-5 by Sap5 purified protease (Sap5 [4]): did not degrade

Molecule: O=S(=O)(F)Cc1ccccc1 [PMSF]
inhibition of C. albicans degradation of Hst-5 (C. albicans cells): not and failed to inhibit
inhibition of proteinase K degradation of Hst-5 (proteinase K): inhibition of degradation; also recorded: inhibited

Molecule: CC(C)CC(=O)N[C@H](C(=O)N[C@H](C(=O)N[C@@H](CC(C)C)[C@@H](O)CC(=O)N[C@@H](C)C(=O)N[C@@H](CC(C)C)[C@@H](O)CC(=O)O)C(C)C)C(C)C [pepstatin A] (Isovaleryl-VV[Sta]A[Sta]-OH)
inhibition of C. albicans degradation of Hst-5 (C. albicans cells): inhibition of C. albicans degradation; also recorded: resulted in inhibition of degradation; also recorded: salvaged Hst-5 from degradation
inhibition of Sap9 degradation of Hst-5 (Sap9 [5]): inhibition of degradation; also recorded: inhibited
inhibition of Sap10 degradation of Hst-5 (Sap10): inhibition of degradation; also recorded: inhibited

not cleaved (Sap5 [6]): did not degrade Hst-5
cleaved bond (Sap9 [7]): R12-Lys13
not cleaved [8]: salvaged Hst-5 from degradation
cleaved bond [9]: K17-H18
cleaved bond [10]: R12-Lys13; also recorded: K17-H18
Molecule: DSHAKRHHGYKRKFHEKHHSHRGY

From paper PMC2661360 (PLoS ONE, 2009)
